# In patent publication US20080280810A1, “PEPTIDES HAVING AFFINITY FOR BODY SURFACES” (priority 2006, published 2008):
# Legend:
# [1] = Color retention after shampoo treatment, peptide as sealant with Acid Red 33 dye; design: species or system human; conditions: 0.50 wt % Acid Red 33, peptide 0.25 wt %, 30 min contact, after one shampoo treatment; vs uncolored hair; larger = better color retention; dye alone 19.63
# Description: The peptides used in this Example were prepared as described in Examples 1-3. The color retention was quantified using a spectrophotometric measurement technique.
# A peptide given as SEQ ID NO:41, SEQ ID NO:42, or SEQ ID NO:43 (38 mg), produced via fermentation as described in Examples 1-3, was added to 15 g of an aqueous 0.50 wt % solution of Acid Red 33 (Abbey Color, Philadelphia, Pa.) and the solution was allowed to stir for 1 h. A natural white hair tress (1 cm wide, potted, International Hair Importers & Products Inc., Bellerose, N.Y.) was inserted into a 15 mm×125 mm test tube and 13 mL of the peptide/dye mixture was injected into the test tube. The hair tress was immersed in contact with the colorant solution for 30 min and the colorant solution was agitated using a magnetic stirrer. The tress was removed, allowed to drip dry, and then air dried for 30 min.
# The hair tress was then subjected to a water rinse using copious amounts of deionized water, followed by a shampoo treatment with embrocation for 30 seconds. The shampoo treatment involved the application of Pantene Pro-V Sheer Volume shampoo (Proctor & Gamble, Cincinnati, Ohio) to the hair as follows. A quarter-sized drop of the shampoo was distributed evenly over the hair tress and then was massaged aggressively into the hair for 30 sec, after which the hair tress was rinsed with water to remove the shampoo. The hair tress was then dried at room temperature. The entire procedure described above was repeated without the addition of the hair-binding peptide to serve as a control.
# The color intensity after the shampoo treatment was measured using an X-Rite® SP78™ Sphere Spectrophotometer (X-Rite, Inc., Grandville, Mich.), by placing the colored hair sample into the photosensor and calculating L*, a* and b* parameters representing the photometer response. An initial baseline L* value was measured for the uncolored hair and all measurements were the average of three individual determinations. Delta E values were calculated using equation 1 below: […]
# [2] = Color retention after shampoo treatment, peptide as sealant with HC Blue 26 dye; design: species or system human; conditions: 0.50 wt % HC Blue 26, peptide 0.25 wt %, 90 min contact, after 6 shampoo treatments; dye alone 25.75
# Description: The peptides used in this Example were prepared as described in Examples 1 and 2. The color retention was quantified using a spectrophotometric measurement technique. A peptide given as SEQ ID NO:41 or SEQ ID NO:42 (38 mg), produced via fermentation as described in Examples 1 and 2, was added to 15 g of an aqueous 0.50 wt % solution of HC Blue 26 (Aldrich) and the solution was allowed to stir for 1 h. A natural white hair tress (1 cm wide, potted, International Hair Importers & Products Inc., Bellerose, N.Y.) was inserted into a 15 mm×125 mm test tube and 13 mL of the peptide/dye mixture was injected into the test tube. The hair tress was immersed in contact with the colorant solution for 90 min and the colorant solution was agitated using a magnetic stirrer. The tress was removed, allowed to drip dry, and then air dried for 30 min. The hair tress was then subjected to a water rinse using copious amounts of deionized water, followed by a shampoo treatment with embrocation for 30 seconds. The shampoo treatment involved the application of Pantene Pro-V Sheer Volume shampoo (Proctor & Gamble, Cincinnati, Ohio) to the hair as follows. […] The color intensity after the shampoo was measured as described in Examples 4-7.
# [3] = HPLC analysis of peptide uptake by hair; type: binding, human; conditions: no dye; for % Uptake time = 0 min / % Uptake time = 30 min / % Uptake time = 60 min: 20 mM Tris pH 7.2, 0.15 M NaCl, room temperature, peptide 0.1 mg/mL (IB5A, A5) or 0.05 mg/mL (HC 71, HC 74); for uptake onto hair compared with the same peptide without the charged groups (in words): HC 71 vs IB5, HC 74 vs A5
# Description: The purpose of this Example was to compare the speed of uptake by measuring the amount of various peptides including peptides of the invention bound to hair at different time points using a high performance liquid chromatography (HPLC) method. The peptides, HC 71, HC 74, IB5 (the hair-binding peptide sequence in HC 71), and A5 (the hair-binding peptide sequence in HC 74), were dissolved in 10 mL of 20 mM Tris, pH 7.2 buffer containing 0.15 M NaCl to give the peptide concentrations shown in Table 11. Natural white hair, 0.54 g, (International Hair Importers & Products Inc., Bellerose, N.Y.) was pre-equilibrated with 10 mL of Tris buffer for 30 min with mixing at room temperature. Then, the buffer was drained from the hair and 10 mL of one of the peptide solutions was added. The hair was incubated with the peptide solution at room temperature without mixing and samples were taken at 0, 30 and 60 min for HPLC analysis. For peptide uptake measurements in the presence of Acid Red 33 dye, the peptide solution was mixed 1:1 with an aqueous solution of the dye (0.5 wt %). Natural white hair (0.65 g) pre-wet with deionized water, was added to the peptide solutions and the solutions were incubated at room temperature without mixing. Samples were taken at time 0, 30, and 60 min for analysis by HPLC. The samples were analyzed using HPLC to determine the concentration of the peptide remaining in solution, and by difference, the amount of peptide taken up by the hair. The HPLC analysis was done using an Agilent liquid chromatograph (Agilent Technologies Inc., Wilmington, Del.) with a 5 μm Zorbax Eclipse XDB-C18 column (Agilent Technologies Inc.). The sample was diluted with distilled water containing 0.1% trifluoroacetic acid (typically a 10-fold dilution), and 5 to 50 μL was injected using a 100 μL injection loop. A solvent gradient elution was used with two solvents: Solvent A, consisting of acetonitrile with 0.1% aqueous trifluoracetic acid, and Solvent B, consisting of water with 0.1% trifluoroacetic acid. The gradient was from 10% acetonitrile to 80% acetonitrile at a rate of 1%/min over a period of 70 min. The flow rate was 1.25 mL/min. Detection was done with a photodiode array detector at 218 nm, 230 nm, and 278 nm.
Substance,Delta E [1],Delta E [2],% Uptake time = 0 min [3],% Uptake time = 30 min [3],% Uptake time = 60 min [3],uptake onto hair compared with the same peptide without the charged groups (in words) [3]
P-EQISGSLVAAPW-KRKRK-D (PEQISGSLVAAPWKRKRKD; Peptide having affinity for hair) [HC 74],28.68,30.36,0%,22%,27%,significantly faster uptake onto hair
P-TPPELLHGAPRS-KRKRK-D (PTPPELLHGAPRSKRKRKD; Peptide having affinity for hair) [HC 71],25.80,27.83,0%,69%,75%,significantly faster uptake onto hair
